# Molecular target: T1, Mitochondrial Lon Peptidase 1 (LonP1) (Homo sapiens, UniProt P36776)
# T1 construct: LonP1 immunopurified from mitochondria of HOG cells overexpressing LonP1
# T1 sequence (P36776 68-959): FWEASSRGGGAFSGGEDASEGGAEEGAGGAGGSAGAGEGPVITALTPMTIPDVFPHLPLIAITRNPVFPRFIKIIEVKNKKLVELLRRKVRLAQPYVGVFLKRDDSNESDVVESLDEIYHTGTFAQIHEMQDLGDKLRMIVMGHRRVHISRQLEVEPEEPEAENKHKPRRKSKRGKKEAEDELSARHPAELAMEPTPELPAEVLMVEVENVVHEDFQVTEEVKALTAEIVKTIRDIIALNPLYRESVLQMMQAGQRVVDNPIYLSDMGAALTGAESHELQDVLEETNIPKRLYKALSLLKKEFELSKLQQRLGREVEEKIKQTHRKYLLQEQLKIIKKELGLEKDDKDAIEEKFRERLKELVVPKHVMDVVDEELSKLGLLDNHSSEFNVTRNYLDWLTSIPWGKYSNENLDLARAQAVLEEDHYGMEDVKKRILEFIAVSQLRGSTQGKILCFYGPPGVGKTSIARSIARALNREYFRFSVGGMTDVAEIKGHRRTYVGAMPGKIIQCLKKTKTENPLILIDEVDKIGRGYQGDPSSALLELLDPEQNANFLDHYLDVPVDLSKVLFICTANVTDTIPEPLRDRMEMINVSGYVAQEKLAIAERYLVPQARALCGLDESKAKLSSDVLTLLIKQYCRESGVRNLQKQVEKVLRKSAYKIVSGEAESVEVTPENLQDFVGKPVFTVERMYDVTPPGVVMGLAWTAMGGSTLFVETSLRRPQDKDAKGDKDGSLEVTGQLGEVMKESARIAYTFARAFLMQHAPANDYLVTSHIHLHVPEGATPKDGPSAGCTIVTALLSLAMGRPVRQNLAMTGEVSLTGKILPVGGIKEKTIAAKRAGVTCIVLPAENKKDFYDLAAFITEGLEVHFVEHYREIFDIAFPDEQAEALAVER
# Assay: FITC-casein fluorescent protease assay with immunopurified LonP1
# Assay type: biochemical
row,SMILES,IC50
1,CC1(C)OB(c2cccc(N(Cc3ccccc3)C(=O)CCl)c2)OC1(C)C [BT399],124 µM
2,Cc1cc(NC(C#N)C2=Cc3cc(Cl)cc(Cl)c3OC2c2ccccc2)ccc1B1OC(C)(C)C(C)(C)O1 (stereo not shown) [BT395],50 µM
3,O=C(Nc1ccc(O)cc1)c1cc2cc(Cl)ccc2oc1=O [BT317],31.2 µM
4,Cc1cc(NC(C#N)C2=Cc3cc(Cl)cc(Cl)c3OC2c2ccccc2)ccc1[B-](F)(F)F (stereo not shown) [BT397],34.5 µM
